Structures can show the parent of a compound that is named as a salt.

Test system in the first series: not given
Assay: not given
Settings: not given
A word on the melting point: it is the temperature, or range, at which the solid turns liquid. The compound `Cc1nc2c(O)c(CC[C@@H](O)c3ccccc3)c(C(=O)N(C)C)cc2n1COCC[Si](C)(C)C` displayed a melting point of 142 to 143 °C.
Still for that read-out and setting: as for `Cc1nc2c3c(c(C(=O)N(C)C)cc2[nH]1)CC[C@@H](c1ccccc1)O3` [C, (8S)-2-Methyl-8-phenyl-3,6,7,8-tetrahydro-chromeno[7,8-d]imidazole-5-carboxylic Acid Dimethylamide], the figure is 215 to 216 °C; as for `Cc1nc2c(O)c(CC[C@@H](O)c3ccccc3)c(C(=O)N3CCC3)cc2n1C` [Example 3, (3R)-Azetidin-1-yl-[7-hydroxy-6-(3-hydroxy-3-phenyl-propyl)-2,3-dimethyl-3H-benzoimidazol-5-yl]-methanone], 265 to 266 °C; as for `CNC(=O)c1cc2c(nc(C)n2C)c(O)c1CC[C@@H](O)c1ccccc1` [Example 4, (3R)-7-Hydroxy-6-(3-hydroxy-3-phenyl-propyl)-2,3-dimethyl-3H-benzoimidazole-5-carboxylic Acid Methylamide], 247 to 249 °C.
`Cc1nc2c(O)c(CC[C@@H](O)c3ccc(F)cc3)c(C(=O)N(C)C)cc2n1C` [Example 6, (3R)-6-[3-(4-Fluoro-phenyl)-3-hydroxy-propyl]-7-hydroxy-2,3-dimethyl-3H-benzoimidazole-5-carboxylic Acid Dimethylamide] yielded a melting point of 276 to 277 °C.
Compound `Cc1ccccc1[C@H](O)CCc1c(C(=O)N(C)C)cc2c(nc(C)n2C)c1O` [Example 7, (3R)-7-Hydroxy-6-(3-hydroxy-3-o-tolyl-propyl)-2,3-dimethyl-3H-benzoimidazole-5-carboxylic Acid Dimethylamide] gave a melting point of 139 to 140 °C.
The same measure, in the same setting: as for `Cc1nc2c(O)c(CC[C@@H](O)c3ccc4ccccc4c3)c(C(=O)N(C)C)cc2n1C` [Example 10, (3R)-7-Hydroxy-6-(3-hydroxy-3-naphthalen-2-yl-propyl)-2,3-dimethyl-3H-benzoimidazole-5-carboxylic Acid Dimethylamide], the figure is 145 to 147 °C.
In turn, `CCc1ccccc1[C@H](O)CCc1c(C(=O)N(C)C)cc2c(nc(C)n2C)c1O` [Example 11, (3R)-6-[3-(2-Ethyl-phenyl)-3-hydroxy-propyl]-7-hydroxy-2,3-dimethyl-3H-benzoimidazole-5-carboxylic Acid Dimethylamide] came in with a melting point of 135 to 137 °C.
Regarding `Cc1nc2c(O)c(CC[C@@H](O)c3cccs3)c(C(=O)N(C)C)cc2n1C` [Example 12, (3R)-7-Hydroxy-6-(3-hydroxy-3-thiophen-2-yl-propyl)-2,3-dimethyl-3H-benzoimidazole-5-carboxylic Acid Dimethylamide], the melting point is 264 to 265 °C.
Same read-out and setting: as for `Cc1ccccc1[C@@H](O)CCc1c(C(=O)N(C)C)cc2c(nc(C)n2C)c1O` [Example 25, (3S)-7-Hydroxy-6-(3-hydroxy-3-o-tolyl-propyl)-2,3-dimethyl-3H-benzoimidazole-5-carboxylic Acid Dimethylamide], the figure is 203 to 205 °C.

The test system of a further series is pentagastrin-stimulated acid secretion of the perfused rat stomach. The series can be described thus: Testing of the secretion-inhibiting action on the perfused rat stomach. Particulars: dose 1 μmol/kg i.d. (intraduodenal), anesthetized CD rat, female, continuous i.v. pentagastrin infusion.
As a reminder, the inhibition in vivo is the drop in the measured response relative to a control, in per cent. `Cc1nc2c3c(c(C(=O)N(C)C)cc2n1C)CC[C@@H](c1ccccc1)O3` [A, (8S)-2,3-Dimethyl-8-phenyl-3,6,7,8-tetrahydro-chromeno[7,8-d]imidazole-5-carboxylic Acid Dimethylamide] displayed an inhibition in vivo at 1 µmol/kg greater than 60%.
The same measure, in the same setting: the figure for `Cc1nc2c3c(c(C(=O)N(C)C)cc2[nH]1)CC[C@@H](c1ccccc1)O3` [C, (8S)-2-Methyl-8-phenyl-3,6,7,8-tetrahydro-chromeno[7,8-d]imidazole-5-carboxylic Acid Dimethylamide] is greater than 90%; for `Cc1nc2c3c(c(C(=O)N4CCC4)cc2n1C)CC[C@@H](c1ccccc1)O3` [D, (8S)-Azetidin-1-yl-(2,3-dimethyl-8-phenyl-3,6,7,8-tetrahydro-chromeno[7,8-d]imidazol-5-yl)-methanone] it is greater than 50%.
Still for that read-out and setting: the figure for `CNC(=O)c1cc2c(nc(C)n2C)c2c1CC[C@@H](c1ccccc1)O2` [E, (8S)-2,3-Dimethyl-8-phenyl-3,6,7,8-tetrahydro-chromeno[7,8-d]imidazole-5-carboxylic Acid Methylamide] is greater than 80%; for `Cc1nc2c3c(c(C(=O)N(C)C)cc2n1C)CC[C@@H](c1ccccc1F)O3` [F, (8S)-8-(2-Fluoro-phenyl)-2,3-dimethyl-3,6,7,8-tetrahydro-chromeno[7,8-d]imidazole-5-carboxylic Acid Dimethylamide] it is greater than 70%; for `Cc1nc2c3c(c(C(=O)N(C)C)cc2n1C)CC[C@@H](c1ccc(F)cc1)O3` [G, (8S)-8-(4-Fluoro-phenyl)-2,3-dimethyl-3,6,7,8-tetrahydro-chromeno[7,8-d]imidazole-5-carboxylic Acid Dimethylamide Hydrochloride] it is 100%.
Same read-out and setting: the figure for `Cc1nc2c3c(c(C(=O)N(C)C)cc2n1C)CC[C@@H](c1ccccc1Cl)O3` [I, (8S)-8-(2-Chloro-phenyl)-2,3-dimethyl-3,6,7,8-tetrahydro-chromeno[7,8-d]imidazol-5-carboxylic Acid Dimethylamide] is greater than 70%.
For `Cc1cc(F)ccc1[C@@H]1CCc2c(C(=O)N(C)C)cc3c(nc(C)n3C)c2O1` [N, (8S)-8-(4-Fluoro-2-methyl-phenyl)-2,3-dimethyl-3,6,7,8-tetrahydro-chromeno[7,8-d]imidazole-5-carboxylic Acid Dimethylamide], the inhibition in vivo at 1 µmol/kg stood at 100%.
The same measure, in the same setting: the figure for `Cc1ccccc1[C@@H]1CCc2c(C(=O)N3CCCC3)cc3c(nc(C)n3C)c2O1` [O, (8S)-(2,3-Dimethyl-8-o-tolyl-3,6,7,8-tetrahydro-chromeno[7,8-d]imidazol-5-yl)-pyrrolidin-1-yl-methanone] is greater than 60%.
Still for that read-out and setting: the figure for `CNC(=O)c1cc2c(nc(C)n2C)c2c1CC[C@@H](c1ccccc1C)O2` [P, (8S)-2,3-Dimethyl-8-o-tolyl-3,6,7,8-tetrahydro-chromeno[7,8-d]imidazole-5-carboxylic Acid Methylamide] is 100%.
The same measure, in the same setting: as for `Cc1ccccc1[C@@H]1CCc2c(C(=O)N3CCC3)cc3c(nc(C)n3C)c2O1` [Q, (8S)-Azetidin-1-yl-(2,3-dimethyl-8-o-tolyl-3,6,7,8-tetrahydro-chromeno[7,8-d]imidazol-5-yl)-methanone], the figure is 100%.
Take `Cc1sccc1[C@@H]1CCc2c(C(=O)N(C)C)cc3c(nc(C)n3C)c2O1` [V, (8S)-2,3-Dimethyl-8-(2-methyl-thiophen-3-yl)-3,6,7,8-tetrahydro-chromeno[7,8-d]imidazole-5-carboxylic acid dimethylamide]: the inhibition in vivo at 1 µmol/kg is 100%.
`Cc1ccccc1[C@@H]1CCc2c(C(=O)NC3CC3)cc3c(nc(C)n3C)c2O1` [W, (8S)-2,3-Dimethyl-8-o-tolyl-3,6,7,8-tetrahydro-chromeno[7,8-d]imidazole-5-carboxylic acid cyclopropylamide] displayed an inhibition in vivo at 1 µmol/kg of 100%.

Still in this series, the particulars now being: dose 1 μmol/kg i.d. (intraduodenal), in vivo, anesthetized CD rat, female; continuous i.v. pentagastrin infusion.
Take `Cc1ccccc1[C@@H]1CCc2c(C(=O)N(C)C)cc3c(nc(C)n3C)c2O1` [H, (8S)-2,3-Dimethyl-8-o-tolyl-3,6,7,8-tetrahydro-chromeno[7,8-d]imidazole-5-carboxylic Acid Dimethylamido]: the “Inhibition of acid secretion (%)” value is listed as 100%.
On the same count and under the same terms, the figure for `CCc1ccccc1[C@@H]1CCc2c(C(=O)N(C)C)cc3c(nc(C)n3C)c2O1` [L, (8S)-(2-Ethyl-phenyl)-2,3-dimethyl-3,6,7,8-tetrahydro-chromeno[7,8-d]imidazole-5-carboxylic Acid Dimethylamide] is greater than 70%.

For the origin of these results see patent US20080280855A1, “Process For the Production of Intermediates For the Preparation of Tricyclic Benzimidazoles” (NYCOMED GmbH, priority 2005, published 2008).
